Experimental data as given in US20080260896A1 (priority 2007, published 2008).
Where two headings read alike, the source gives them in different places. Marks after values point to notes of the source that are not given here.

What was measured:
[1] = Methanol concentration of stored crude glycerin; assay type: physicochemical; details: stored in sealed totes approximately 5 months, analyzed in duplicate; certificate of analysis 800 ppm
Source text: (§1) A subset of ten cattle (5 from each treatment) were used for baseline and withdrawal sampling of rumen fluid and blood plasma for residual methanol quantification. […] Withdrawal samples were collected from the same subset of animals.

[2] = male, crossbred, cattle, in vivo
Source text: as §1

[3] = Crude glycerin in finishing cattle diets: animal performance (weight, ADG, DMI, gain/feed); assay type: in vivo, Angus-cross steers; details: for Average Daily Gain / Dry Matter Intake / Gain/Feed, ×100 / Weight: 10% DM glycerin
Description: All cattle were adapted on a common 4-step transition prior to initiation of the evaluation. Cattle were blocked by weight (4 blocks) with four pens per treatment (9-10 head/pen). […] Individual weights were collected at 28-day intervals throughout with steers terminated on three harvest dates (days on feed 116 to 153 days) based on weight and condition. Six monthly periods and cumulative (d 1-116 and 1-153) periods were analyzed.

[4] = Lactating Holstein cows fed heat stress product with and without glycerin; assay type: in vivo; details: heat stress product + 454 g/d glycerin
Source text: Forty-eight lactating Holstein cows (twelve per treatment) were used in a randomized complete block design to determine the effect of feed additives on production efficiency. […] Treatments 2 and 4 will be the focus of this example. Diets were corn silage based and formulated to be iso-nitrogenous. Cows were housed in a free-stall barn with access to individual stalls. Training for Calan door use was initiated in mid-May, the standardization period occurred in early June and the treatment period started in late June and continued through early August. Feed was mixed and delivered once daily and fed behind electronic Calan doors, allowing individual intake to be determined. Ad libitum intakes were adjusted to achieve orts of 7-10% daily. Cows were milked twice daily at 0400 and 1500. Feed intake, milk yield and composition, body temperature, and body weight changes were monitored.

[5] = Day 1-28, DDGS:Soy Hulls 10:0 diet (Treatment 2)
[6] = Day 1-28, DDGS:Soy Hulls 30:15 diet (Treatment 4)
[7] = Day 1-28, main effect over both diets
[8] = Day 1-116, DDGS:Soy Hulls 10:0 diet (Treatment 2)
[9] = Day 1-116, DDGS:Soy Hulls 30:15 diet (Treatment 4)
[10] = Day 1-116, main effect over both diets
[11] = Day 1-153, DDGS:Soy Hulls 10:0 diet (Treatment 2)
[12] = Day 1-153, DDGS:Soy Hulls 30:15 diet (Treatment 4)
[13] = Day 1-153, main effect over both diets
[14] = Day 29-56, DDGS:Soy Hulls 10:0 diet (Treatment 2)
[15] = Day 29-56, DDGS:Soy Hulls 30:15 diet (Treatment 4)
[16] = Day 29-56, main effect over both diets
[17] = Day 57-84, DDGS:Soy Hulls 10:0 diet (Treatment 2)
[18] = Day 57-84, DDGS:Soy Hulls 30:15 diet (Treatment 4)
[19] = Day 57-84, main effect over both diets
[20] = Day 85-116, DDGS:Soy Hulls 10:0 diet (Treatment 2)
[21] = Day 85-116, DDGS:Soy Hulls 30:15 diet (Treatment 4)
[22] = Day 85-116, main effect over both diets
[23] = Day 117-132, DDGS:Soy Hulls 10:0 diet (Treatment 2)
[24] = Day 117-132, DDGS:Soy Hulls 30:15 diet (Treatment 4)
[25] = Day 117-132, main effect over both diets
[26] = Day 133-153, DDGS:Soy Hulls 10:0 diet (Treatment 2)
[27] = Day 133-153, DDGS:Soy Hulls 30:15 diet (Treatment 4)
[28] = Day 133-153, main effect over both diets
[29] = high co-product diets with glycerin

Structure (SMILES): OCC(O)CO [crude glycerin, glycerin]
- methanol concentration of crude glycerin samples [1]: 756 ppm
- animals with measurable methanol in rumen fluid [2]: 50%
- animals with measurable methanol in rumen fluid ([2]; 16 day): 100%
- methanol in rumen fluid ([2]; 16 day): ≤ 23.77 ppm
- Average Daily Gain [3, 5]: 1.46^a kg/hd/d
- Dry Matter Intake [3, 5]: 7.97^c kg/hd/d
- Gain/Feed, ×100 [3, 5]: 18.27^a
- Average Daily Gain [3, 6]: 1.31^ab kg/hd/d
- Dry Matter Intake [3, 6]: 8.34^bc kg/hd/d
- Gain/Feed, ×100 [3, 6]: 15.64^b
- Average Daily Gain [3, 7]: 1.38 kg/hd/d
- Dry Matter Intake [3, 7]: 8.16 kg/hd/d
- Gain/Feed, ×100 [3, 7]: 16.96
- Average Daily Gain [3, 8]: 1.30 kg/hd/d
- Dry Matter Intake [3, 8]: 8.31^c kg/hd/d
- Gain/Feed, ×100 [3, 8]: 15.66^a
- Average Daily Gain [3, 9]: 1.27 kg/hd/d
- Dry Matter Intake [3, 9]: 8.95^b kg/hd/d
- Gain/Feed, ×100 [3, 9]: 14.28^b
- Average Daily Gain [3, 10]: 1.29 kg/hd/d
- Dry Matter Intake [3, 10]: 8.63 kg/hd/d
- Gain/Feed, ×100 [3, 10]: 14.97
- Average Daily Gain [3, 11]: 1.27^a kg/hd/d
- Dry Matter Intake [3, 11]: 8.37^c kg/hd/d
- Gain/Feed, ×100 [3, 11]: 15.21^a
- Average Daily Gain [3, 12]: 1.21^ab kg/hd/d
- Dry Matter Intake [3, 12]: 8.99^b kg/hd/d
- Gain/Feed, ×100 [3, 12]: 13.43^b
- Average Daily Gain [3, 13]: 1.24 kg/hd/d
- Dry Matter Intake [3, 13]: 8.68 kg/hd/d
- Gain/Feed, ×100 [3, 13]: 14.32
- Weight ([3]; Day 28, DDGS:Soy Hulls 10:0 diet (Treatment 2)): 428.2^a kg
- Weight ([3]; Day 28, DDGS:Soy Hulls 30:15 diet (Treatment 4)): 423.9^ab kg
- Weight ([3]; Day 28, main effect over both diets): 426.1 kg
- Average Daily Gain [3, 14]: 1.53 kg/hd/d
- Dry Matter Intake [3, 14]: 8.78^c kg/hd/d
- Gain/Feed, ×100 [3, 14]: 17.43^a
- Average Daily Gain [3, 15]: 1.66 kg/hd/d
- Dry Matter Intake [3, 15]: 9.95^b kg/hd/d
- Gain/Feed, ×100 [3, 15]: 16.78^a
- Average Daily Gain [3, 16]: 1.60 kg/hd/d
- Dry Matter Intake [3, 16]: 9.36 kg/hd/d
- Gain/Feed, ×100 [3, 16]: 17.10
- Weight ([3]; Day 56, DDGS:Soy Hulls 10:0 diet (Treatment 2)): 471.2 kg
- Weight ([3]; Day 56, DDGS:Soy Hulls 30:15 diet (Treatment 4)): 470.5 kg
- Weight ([3]; Day 56, main effect over both diets): 470.9 kg
- Average Daily Gain [3, 17]: 1.29 kg/hd/d
- Dry Matter Intake [3, 17]: 8.84^b kg/hd/d
- Gain/Feed, ×100 [3, 17]: 14.64
- Average Daily Gain [3, 18]: 1.25 kg/hd/d
- Dry Matter Intake [3, 18]: 9.37^b kg/hd/d
- Gain/Feed, ×100 [3, 18]: 13.36
- Average Daily Gain [3, 19]: 1.27 kg/hd/d
- Dry Matter Intake [3, 19]: 9.11 kg/hd/d
- Gain/Feed, ×100 [3, 19]: 14.00
- Weight ([3]; Day 84, DDGS:Soy Hulls 10:0 diet (Treatment 2)): 507.3 kg
- Weight ([3]; Day 84, DDGS:Soy Hulls 30:15 diet (Treatment 4)): 505.4 kg
- Weight ([3]; Day 84, main effect over both diets): 506.4 kg
- Average Daily Gain [3, 20]: 0.97 kg/hd/d
- Dry Matter Intake [3, 20]: 7.74^c kg/hd/d
- Gain/Feed, ×100 [3, 20]: 12.47
- Average Daily Gain [3, 21]: 0.93 kg/hd/d
- Dry Matter Intake [3, 21]: 8.25^bc kg/hd/d
- Gain/Feed, ×100 [3, 21]: 11.22
- Average Daily Gain [3, 22]: 0.95 kg/hd/d
- Dry Matter Intake [3, 22]: 8.00 kg/hd/d
- Gain/Feed, ×100 [3, 22]: 11.84
- Weight ([3]; Day 116, DDGS:Soy Hulls 10:0 diet (Treatment 2)): 538.3 kg
- Weight ([3]; Day 116, DDGS:Soy Hulls 30:15 diet (Treatment 4)): 535.1 kg
- Weight ([3]; Day 116, main effect over both diets): 536.7 kg
- Average Daily Gain [3, 23]: 1.46 kg/hd/d
- Dry Matter Intake [3, 23]: 8.67^ab kg/hd/d
- Gain/Feed, ×100 [3, 23]: 17.25
- Average Daily Gain [3, 24]: 1.26 kg/hd/d
- Dry Matter Intake [3, 24]: 9.54^ab kg/hd/d
- Gain/Feed, ×100 [3, 24]: 12.86
- Average Daily Gain [3, 25]: 1.36 kg/hd/d
- Dry Matter Intake [3, 25]: 9.11 kg/hd/d
- Gain/Feed, ×100 [3, 25]: 15.06
- Weight ([3]; Day 132, DDGS:Soy Hulls 10:0 diet (Treatment 2)): 552.8 kg
- Weight ([3]; Day 132, DDGS:Soy Hulls 30:15 diet (Treatment 4)): 548.8 kg
- Weight ([3]; Day 132, main effect over both diets): 550.8 kg
- Average Daily Gain [3, 26]: 1.39^a kg/hd/d
- Dry Matter Intake [3, 26]: 8.48 kg/hd/d
- Gain/Feed, ×100 [3, 26]: 16.48^a
- Average Daily Gain [3, 27]: 0.90^b kg/hd/d
- Dry Matter Intake [3, 27]: 9.42 kg/hd/d
- Gain/Feed, ×100 [3, 27]: 9.35^b
- Average Daily Gain [3, 28]: 1.15 kg/hd/d
- Dry Matter Intake [3, 28]: 8.95 kg/hd/d
- Gain/Feed, ×100 [3, 28]: 12.92
- Weight ([3]; Day 153, DDGS:Soy Hulls 10:0 diet (Treatment 2)): 570.5 kg
- Weight ([3]; Day 153, DDGS:Soy Hulls 30:15 diet (Treatment 4)): 548.0 kg
- Weight ([3]; Day 153, main effect over both diets): 559.3 kg
- Cumulative ADG better [3, 29]: 2.5%
- cumulative DMI lower [3, 29]: 11.8%
- cumulative gain: feed better [3, 29]: 16.4%
- Cumulative ADG greater ([3]; high-grain diets with glycerin): 11.4%
- cumulative DMI lesser ([3]; high-grain diets with glycerin): 8.1%
- cumulative gain: feed greater ([3]; high-grain diets with glycerin): 21.9%
- Cumulative ADG ([3]; steers fed diets containing 10% crude glycerin (main effect)): 1.24 kg/day
- dry matter intake (DMI) ([3]; steers fed diets with added glycerin (main effect), cumulative): 8.68 kg/day
- NE Balance [4]: 6.15 mcal/day
- NE intake [4]: 38.74 mcal/day
- NE milk [4]: 27.07 mcal/day
- Body Weight change ([4]; 56 days): greater
- Milk fat ([4]; 56 days): 3.90%
- Milk fat, milk protein, and energy corrected milk yield ([4]; 56 days): tended greater
- Milk production ([4]; 56 days): not affected by treatment group
- Milk protein ([4]; 56 days): 2.93%
- Retained net energy for lactation and/or body weight gain ([4]; 56 days): significantly greater
- Milk ([4]; 56 days, all cows): 38.53 kg/day
- DMI ([4]; 56 days, listed as Glycerin): 23.49 kg/day
- DMI ([4]; 56 days, listed as glycerin): not different among treatment groups
- Milk, Multiparous ([4]; multiparous cows): 36.63 kg/day
- Milk, Primiparous ([4]; primiparous cows): 40.42 kg/day
- ECM (energy corrected milk) ([4]; (.3246 × kg milk) + (12.86 × kg fat) + (7.04 × kg protein)): 39.40 kg/day
- BW change ([4]; difference in body weights using a weekly rolling average): 0.779 kg/day
